Assay results from publication PMC7394586 (OncoTargets and therapy, 2020).

Assays:
MHCC97-H cells [1] = assay: MTT cell survival assay; type: cell-based, human; settings: for change of IC50 on MHCC97-H cells on overexpression of miR-3609: miR-3609 overexpression versus control
[2] = system: MHCC97-H subcutaneous tumors; assay: Tumor-based clearance of sorafenib in subcutaneous tumors; type: in vivo, nude mice; settings: Control, sorafenib injected into subcutaneous tumors
[3] = system: PDC No. 3 subcutaneous tumors; assay: as above; type: in vivo, nude mice; settings: PDC No. 3, Tumor-based, miR-3609; sorafenib injected into subcutaneous tumors
[4] = system: PDC No. 3 subcutaneous growth; assay: Antitumor effect in vivo, subcutaneous tumor model; parameters: species or system nude mice; settings: oral administration every 2 days, 10 treatments
[5] = system: PDC No. 5 subcutaneous growth; assay: Antitumor effect in vivo, subcutaneous tumor model; parameters: species or system nude mice; settings: oral administration every 2 days, 10 treatments
[6] = system: PDC No. 1 subcutaneous growth; assay: Antitumor effect in vivo, subcutaneous tumor model; parameters: species or system nude mice; settings: oral administration every 2 days, 10 treatments
[7] = Clinical outcome of advanced HCC patients who received sorafenib treatment; type: in vivo, human
[8] = system: PDC No. 4 subcutaneous growth; assay: Antitumor effect in vivo, subcutaneous tumor model; parameters: species or system nude mice; settings: oral administration every 2 days, 10 treatments
[9] = system: PDC No. 2 subcutaneous growth; assay: Antitumor effect in vivo, subcutaneous tumor model; parameters: species or system nude mice; settings: oral administration every 2 days, 10 treatments
[10] = Cell-based metabolism/clearance of sorafenib; type: in vitro ADME, human; settings: human, MHCC97-H cells, Half-Life Time (t1/2, h), MHCC97-H, Cell-based, 1 μmol/L sorafenib
MHCC97-H cells [11] = assay: Cell-based metabolism/clearance of sorafenib; type: in vitro ADME, human; settings: LC-MS/MS, cultured HCC cells
[12] = system: PDC No. 1 subcutaneous tumors; assay: Tumor-based clearance of sorafenib in subcutaneous tumors; type: in vivo, nude mice; settings: PDC No. 1, Tumor-based, Control; sorafenib injected into subcutaneous tumors
[13] = system: MHCC97-H subcutaneous growth; assay: Antitumor effect in vivo, subcutaneous tumor model; parameters: species or system nude mice; settings: for IC50 values of Soarfenib on Subcutaneous Tumor Weights: MHCC97-H, oral administration every 2 days, 10 treatments
[14] = patients with EPAS-1 mRNA expression High (n = 26)
[15] = patients with EPAS-1 mRNA expression Low (n = 26)
[16] = patients with miR-3609 expression High (n = 26)
[17] = patients with miR-3609 expression Low (n = 26)

Question: For `COc1cc2nccc(Oc3ccc(NC(=O)NC4CC4)c(Cl)c3)c2cc1C(N)=O` [lenvatinib], which “change of IC50 on MHCC97-H cells on overexpression of miR-3609” value (“change of IC50 on MHCC97-H cells” below) (MHCC97-H cells [1]) is on record?
Answer: decreased

Question: For `COc1cc2c(Oc3ccc4[nH]c(C)cc4c3F)ccnc2cc1OCC1(N)CC1` [anlotinib], which “change of IC50 on MHCC97-H cells” value (MHCC97-H cells [1]) is on record?
Answer: decreased

Question: With `CNC(=O)c1cc(Oc2ccc(NC(=O)Nc3ccc(Cl)c(C(F)(F)F)c3)cc2)ccn1` [sorafenib] as the molecule, how does the “Half-Life Time (t1/2, h)” value [2] read?
Answer: 30.73 ± 6.46 h

Question: What about the “Half-Life Time (t1/2, h)” value [3] of the same molecule?
Answer: 50.73 ± 4.02 h

Question: And the “IC50 values of Soarfenib on Subcutaneous Tumor Weights” value (from here on “IC50 values of Soarfenib”) ([4]; PDC No. 3, Control)?
Answer: 1.99 ± 0.54 mg/kg

Question: And the “IC50 values of Soarfenib” value ([4]; PDC No. 3, miR-3609 + EPAS-1^Mut)?
Answer: 1.81 ± 0.41 mg/kg

Question: What about the “IC50 values of Soarfenib” value ([4]; PDC No. 3, miR-3609) of the same molecule?
Answer: 0.30 ± 0.04 mg/kg

Question: What about the “IC50 values of Soarfenib” value ([5]; PDC No. 5, Control) of the same molecule?
Answer: 2.88 ± 0.39 mg/kg

Question: And the “IC50 values of Soarfenib” value ([5]; PDC No. 5, miR-3609 + EPAS-1^Mut)?
Answer: 2.32 ± 0.69 mg/kg

Question: What about the “IC50 values of Soarfenib” value ([5]; PDC No. 5, miR-3609) of the same molecule?
Answer: 0.66 ± 0.21 mg/kg

Question: And the “IC50 values of Soarfenib” value ([6]; PDC No. 1, Control)?
Answer: ~3 mg/kg

Question: And the “IC50 values of Soarfenib” value ([6]; PDC No. 1, miR-3609 + EPAS-1^Mut)?
Answer: >3 mg/kg

Question: And the “IC50 values of Soarfenib” value ([6]; PDC No. 1, miR-3609)?
Answer: 0.87 ± 0.39 mg/kg

Question: And the “OS (overall survival)” value [7, 14]?
Answer: 11.0 M

Question: What about the “TTP (time to progress)” value [7, 14] of the same molecule?
Answer: 8.0 M

Question: What about the “OS (overall survival)” value [7, 15] of the same molecule?
Answer: 16.0 M

Question: And the “TTP (time to progress)” value [7, 15]?
Answer: 13.0 M

Question: And the “OS (overall survival)” value [7, 16]?
Answer: 15.0 M

Question: And the “TTP (time to progress)” value [7, 16]?
Answer: 12.0 M

Question: What about the “OS (overall survival)” value [7, 17] of the same molecule?
Answer: 12.0 M

Question: What about the “TTP (time to progress)” value [7, 17] of the same molecule?
Answer: 8.0 M

Question: What about the “IC50 values of Soarfenib” value ([8]; PDC No. 4, Control) of the same molecule?
Answer: 2.70 ± 0.70 mg/kg

Question: And the “IC50 values of Soarfenib” value ([8]; PDC No. 4, miR-3609 + EPAS-1^Mut)?
Answer: 2.76 ± 0.62 mg/kg

Question: And the “IC50 values of Soarfenib” value ([8]; PDC No. 4, miR-3609)?
Answer: 0.95 ± 0.60 mg/kg

Question: What about the “IC50 values of Soarfenib” value ([9]; PDC No. 2, Control) of the same molecule?
Answer: 1.77 ± 0.20 mg/kg

Question: And the “IC50 values of Soarfenib” value ([9]; PDC No. 2, miR-3609 + EPAS-1^Mut)?
Answer: 2.20 ± 0.45 mg/kg

Question: And the “IC50 values of Soarfenib” value ([9]; PDC No. 2, miR-3609)?
Answer: 0.48 ± 0.10 mg/kg

Question: And the half-life at 1 μmol/L ([10]; Control)?
Answer: 18.6 ± 2.46 h

Question: And the half-life at 1 μmol/L ([10]; miR-3609 + EPAS-1^Mut)?
Answer: 18 ± 3.18 h

Question: And the half-life at 1 μmol/L ([10]; miR-3609)?
Answer: 37.1 ± 6.12 h

Question: And the “metabolism and clearance in HCC cells” value (MHCC97-H cells [11])?
Answer: gradually metabolized and cleared

Question: And the “survival of MHCC97-H cells” value (MHCC97-H cells [1]; 0.01-10 μmol/L)?
Answer: inhibited the survival of MHCC97-H cells in a dose-dependent manner

Question: What about the “change of IC50 on MHCC97-H cells” value (MHCC97-H cells [1]) of the same molecule?
Answer: decreased

Question: What about the “Half-Life Time (t1/2, h)” value [12] of the same molecule?
Answer: 26.32 ± 6.91 h

Question: What about the “IC50 values of Soarfenib” value ([13]; Control) of the same molecule?
Answer: 2.25 ± 0.44 mg/kg

Question: And the “IC50 values of Soarfenib” value ([13]; miR-3609 + EPAS-1^Mut)?
Answer: 2.51 ± 0.52 mg/kg

Question: And the “IC50 values of Soarfenib” value ([13]; miR-3609)?
Answer: 0.15 ± 0.02 mg/kg

Question: And the “subcutaneous growth of MHCC97-H cells” value ([13]; nude mice, oral administration)?
Answer: inhibited the subcutaneous growth of MHCC97-H cells in a dose-dependent manner

Question: Which “change of IC50 on MHCC97-H cells” value (MHCC97-H cells [1]) does the source give for `N#CC1(c2ccc(NC(=O)c3cccnc3NCc3ccncc3)cc2)CCCC1` [apatinib] here?
Answer: decreased

Question: For `CNC(=O)c1cc(Oc2ccc(NC(=O)Nc3ccc(Cl)c(C(F)(F)F)c3)c(F)c2)ccn1` [regorafenib], which “change of IC50 on MHCC97-H cells” value (MHCC97-H cells [1]) is on record?
Answer: decreased
